Experimental data taken from patent publication US11572590B2, “Methods for evaluating tumor cell spheroids using 3D microfluidic cell culture device” (Dana-Farber Cancer Institute, Inc., priority 2017, dated 2023).
Like-named read-outs stand apart in the source and are kept apart here.

How the values were obtained:
Assay in all cases: SelectScreen Kinase Profiling, single point inhibition and IC50 for off-target kinases
Assay type in all cases: biochemical
off-target kinases [1] = target: off-target kinases (Homo sapiens, UniProt Q9HCP0); details: CSNK1G1 (CK1 gamma 1); Cmpd1 1000 μM; ATP Km app; ZLYTE
off-target kinases (Homo sapiens, UniProt Q9HCP0), sequence (Q9HCP0 whole entry): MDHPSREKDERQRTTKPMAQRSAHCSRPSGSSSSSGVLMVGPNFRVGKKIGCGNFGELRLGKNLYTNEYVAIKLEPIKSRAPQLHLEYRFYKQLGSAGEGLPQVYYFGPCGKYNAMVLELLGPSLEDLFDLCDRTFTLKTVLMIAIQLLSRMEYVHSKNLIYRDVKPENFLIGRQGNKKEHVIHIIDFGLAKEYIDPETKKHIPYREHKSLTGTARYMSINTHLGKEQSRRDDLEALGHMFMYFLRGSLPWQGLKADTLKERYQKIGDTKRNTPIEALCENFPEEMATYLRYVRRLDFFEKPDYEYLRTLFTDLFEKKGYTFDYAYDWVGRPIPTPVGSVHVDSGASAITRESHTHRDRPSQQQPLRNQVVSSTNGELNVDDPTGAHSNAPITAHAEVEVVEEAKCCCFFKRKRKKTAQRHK

off-target kinases [2] = target: T1, off-target kinases (Homo sapiens, UniProt Q32MK0); details: MLCK (MLCK2), LanthaScreen Binding
T1 sequence (Q32MK0 1-819): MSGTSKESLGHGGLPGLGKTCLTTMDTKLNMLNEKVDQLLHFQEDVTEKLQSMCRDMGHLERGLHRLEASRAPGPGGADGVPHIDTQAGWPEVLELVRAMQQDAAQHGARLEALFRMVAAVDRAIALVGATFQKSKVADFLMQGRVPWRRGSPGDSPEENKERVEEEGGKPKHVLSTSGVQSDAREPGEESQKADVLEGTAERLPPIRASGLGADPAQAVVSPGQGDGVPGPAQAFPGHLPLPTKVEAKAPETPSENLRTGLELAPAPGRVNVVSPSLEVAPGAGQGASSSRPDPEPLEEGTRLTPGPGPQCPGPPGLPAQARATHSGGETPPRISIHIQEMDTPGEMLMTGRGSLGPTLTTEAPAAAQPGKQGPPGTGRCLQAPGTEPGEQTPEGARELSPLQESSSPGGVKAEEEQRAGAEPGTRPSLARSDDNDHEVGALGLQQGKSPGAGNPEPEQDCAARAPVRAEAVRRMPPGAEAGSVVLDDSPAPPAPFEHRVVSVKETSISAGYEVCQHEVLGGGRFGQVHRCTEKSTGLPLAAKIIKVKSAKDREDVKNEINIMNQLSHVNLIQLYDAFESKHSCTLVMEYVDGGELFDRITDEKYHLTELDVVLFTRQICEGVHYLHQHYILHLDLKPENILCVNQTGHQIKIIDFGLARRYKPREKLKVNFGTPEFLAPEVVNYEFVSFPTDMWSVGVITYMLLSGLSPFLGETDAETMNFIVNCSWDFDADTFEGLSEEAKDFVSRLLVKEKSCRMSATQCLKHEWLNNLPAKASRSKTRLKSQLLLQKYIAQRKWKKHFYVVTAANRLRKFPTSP

off-target kinases [3] = target: T2, off-target kinases (Homo sapiens, UniProt P54760); details: EPHB4, ZLYTE, ATP Km app
T2 sequence (P54760 16-987): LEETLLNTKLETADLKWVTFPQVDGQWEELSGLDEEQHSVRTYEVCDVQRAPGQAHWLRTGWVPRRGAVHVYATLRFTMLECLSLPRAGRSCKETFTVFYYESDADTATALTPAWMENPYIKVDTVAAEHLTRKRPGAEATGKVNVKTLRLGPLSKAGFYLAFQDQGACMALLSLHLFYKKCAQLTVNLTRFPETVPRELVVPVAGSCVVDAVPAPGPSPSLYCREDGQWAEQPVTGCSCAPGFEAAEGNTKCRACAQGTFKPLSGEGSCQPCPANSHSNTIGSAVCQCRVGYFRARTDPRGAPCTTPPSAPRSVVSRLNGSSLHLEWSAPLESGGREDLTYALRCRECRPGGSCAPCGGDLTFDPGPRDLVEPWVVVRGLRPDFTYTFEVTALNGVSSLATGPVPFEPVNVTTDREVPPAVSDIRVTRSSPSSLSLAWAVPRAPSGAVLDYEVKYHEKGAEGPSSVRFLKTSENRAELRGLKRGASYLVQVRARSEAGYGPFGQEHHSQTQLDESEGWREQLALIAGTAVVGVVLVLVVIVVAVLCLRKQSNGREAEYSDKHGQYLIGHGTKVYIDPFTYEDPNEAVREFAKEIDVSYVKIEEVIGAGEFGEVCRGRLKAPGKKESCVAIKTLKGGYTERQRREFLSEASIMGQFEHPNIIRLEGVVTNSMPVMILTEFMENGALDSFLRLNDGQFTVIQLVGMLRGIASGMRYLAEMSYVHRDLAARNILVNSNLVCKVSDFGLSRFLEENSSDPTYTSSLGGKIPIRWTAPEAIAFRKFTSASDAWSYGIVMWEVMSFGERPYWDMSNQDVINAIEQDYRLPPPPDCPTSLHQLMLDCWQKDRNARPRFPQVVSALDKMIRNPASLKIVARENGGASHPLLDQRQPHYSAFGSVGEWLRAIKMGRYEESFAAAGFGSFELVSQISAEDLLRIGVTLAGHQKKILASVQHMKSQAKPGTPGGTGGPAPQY

N#Cc1cc(-c2ncnc(Nc3ccc(N4CCN(C5COC5)CC4)cc3)n2)ccc1OC1CCOCC1 [Compound 1, 5-(4-((4-(4-(oxetan-3-yl)piperazin-1-yl)phenyl)amino)-1,3,5-triazin-2-yl)-2-((tetrahydro-2H-pyran-4-yl)oxy)benzonitrile]
% Inhibition 1 (off-target kinases [1]): −14% | % Inhibition 2 (off-target kinases [1]): 2% | % Inhibition Avg (off-target kinases [1]): −6% | inhibition (off-target kinases [2]; read-out: % Inhibition 1): 92% | inhibition (off-target kinases [2]; read-out: % Inhibition 2): 93% | inhibition (off-target kinases [2]; read-out: % Inhibition Avg): 93% | inhibition (off-target kinases [3]; read-out: % Inhibition 1): 15% | inhibition (off-target kinases [3]; read-out: % Inhibition 2): 14% | inhibition (off-target kinases [3]; read-out: % Inhibition Avg): 15%
